Measurements published in patent US8138343B2, “Crystalline polymorph of 7-ethyl-10-hydroxycamptothecin” (ScinoPharm Taiwan Ltd., priority 2007, dated 2012).

Assay: Storage stability of crystalline SN38
Format: physicochemical
Conditions: 25° C. and 70% relative humidity for one year

SMILES: CCc1c2c(nc3ccc(O)cc13)-c1cc3c(c(=O)n1C2)COC(=O)C3(O)CC (stereo not shown) [crystalline SN38, 7-ethyl-10-hydroxycamptothecin]
- stability on storage: stable
